Reference: paper PMC9699089 (Pathogens, 2022)
Where two headings read alike, the source gives them in different places.

Legend:
[1] = target: G4-forming oligonucleotide Pf8 (d[(G3T2CA)3G3]); experiment: Native electrospray mass spectrometry, Pf8; type: binding, Plasmodium; settings: 100 mM TMAA, 1 mM KCl
Protocol: (§1) Oligonucleotides were purchased in the lyophilized form from Eurogentec (RP-cartridge purification), and dissolved at 1 mM in pure water. TMAA (1 M) was purchased from Santa Cruz Biotechnology and potassium chloride (purity > 99.99%) from Sigma Aldrich (Sigma Aldrich, Saint-Quentin-Fallavier, France). The sample solutions contained 10 µM oligonucleotide and 10 (for CD only) or 20 µM ligand, in a 100 mM TMAA, 1mM KCl buffer. The solutions were incubated overnight at 4 °C before analysis.
(§2) The sample solutions were injected at a 10 µM strand concentration on an Agilent 6560 DTIMS-Q-TOF instrument (Agilent Technologies, Santa Clara, CA, USA), equipped with a dual-ESI source operated in the negative ion mode in soft conditions. The following parameters were used: fragmentor 320 V, trap fill time 1000 µs, trap release time 200 µs, trap entrance grid delta 2 V. The drift tube was filled with helium and the pressure was fixed at 3.89 ± 0.01 Torr (measured by a capacitance diaphragm gauge CDG-500, Agilent Technologies).
(§3) The MS data were extracted using the IM-MS Browser (v. B.08.00; Agilent Technologies). The peak area intensity of each species at the 5- charge state was extracted from their corresponding m/z range (encompassing potassium adducts), and baseline subtracted. The concentrations of all species (free DNA, free ligands, and complexes) and corresponding dissociation constants were determined as previously described.

[2] = test system: Plasmodium telomeric sequence FPf8T G-quadruplex; experiment: FRET melting assay, FPf8T; type: binding, Plasmodium falciparum; settings: compound 2 μM, oligonucleotide 0.2 μM, K+ conditions
Protocol: (§4) These were performed with dual-labeled oligonucleotides mimicking the Plasmodium telomeric sequences FPf1T [FAM-5′(GGGTTTA)3-GGG3′-TAMRA] and FPf8T [FAM-5′(GGGTTCA)3GGG3′-TAMRA], the Trypanosoma 9 and 11 chromosomic sequence FTrypBT (also named FEBR1T) [FAM-5′[…]3′-TAMRA], the human telomeric sequence F21T [FAM-(GGGTTA)3-GGG3′-TAMRA] and the human duplex sequence FdxT [FAM5′-[…]-hexaethyleneglycol-[…]3′-TAMRA] [27, 31, 47]. The oligonucleotides were pre-folded in 10 mM lithium cacodylate buffer (pH 7.2), with 10 mM KCl and 90 mM LiCl (K^+ condition). The FAM emissions were recorded at 516 nm using a 492-nm excitation wavelength in the absence and presence of a single compound as a function of temperature (25 to 95 °C) in 96-well microplates using a Stratagene MX3000P real-time PCR device at a rate of 1 °C∙min-1. Data were normalized between 0 and 1, and the required temperature for half-denaturation of oligonucleotides corresponding to the emission value of 0.5 was taken as the Tm. Each experiment was performed in duplicate with 0.2 µM of labeled oligonucleotide and 2 µM of compound under K^+ condition. For each compound, three independent experiments were carried out.

[3] = test system: Plasmodium telomeric sequence FPf1T G-quadruplex; experiment: FRET melting assay, FPf1T; type: binding, Plasmodium falciparum; settings: compound 2 μM, oligonucleotide 0.2 μM, K+ conditions
Protocol: as §4

[4] = test system: Trypanosoma 9 and 11 chromosomic sequence FTrypBT (FEBR1T) G-quadruplex; experiment: FRET melting assay, FtrypBT; type: binding, Trypanosoma brucei brucei; settings: compound 2 μM, oligonucleotide 0.2 μM, K+ conditions
Outline: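 Dual-labelled FAM/TAMRA oligonucleotides (0.2 µM) pre-folded in 10 mM lithium cacodylate pH 7.2, 10 mM KCl, 90 mM LiCl, with 2 µM compound. FAM emission (ex 492/em 516 nm) followed from 25 to 95 °C at 1 °C/min; Tm is the temperature at normalized emission 0.5, compared with and without compound.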

[5] = Cytotoxicity evaluation, MTT assay; type: cell-based, human; settings: human
Outline: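 MTT read-out in duplicate; wells checked for precipitate, then MTT 0.5 mg/mL in FCS-free medium added, formazan dissolved in DMSO and absorbance read at 570 nm (630 nm reference). Viability expressed as percentage of untreated cells; CC50 derived from dose-response curve.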

[6] = test system: L. donovani (MHOM/IN/00/DEVI) promastigotes; experiment: In vitro antileishmanial activity on promastigotes, MTT assay; type: cell-based; settings: Leishmania donovani, 72 h incubation, mean +/- SD of three independent experiments
Outline: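 Log-phase L. donovani MHOM/IN/00/DEVI promastigotes at 10^6 parasites/mL in Schneider's medium with 20% FCS were exposed to compounds for 72 h at 27 °C, final DMSO under 0.5%. Viability was read by MTT reduction over 4 h, absorbance 570 nm (630 nm reference). IC50 came from regression, three independent experiments.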

[7] = test system: human telomeric sequence F21T G-quadruplex; experiment: FRET melting assay, F21T; type: binding; settings: compound 2 μM, oligonucleotide 0.2 μM, K+ conditions
Protocol: as §4

[8] = target: G4-forming oligonucleotide Pf1 (d[(G3T3A)3G3]); experiment: Native electrospray mass spectrometry, Pf1; type: binding, Plasmodium; parameters: key to Kd Pf1, stoichiometry 1 (Kd1) / Kd Pf1, stoichiometry 2 (Kd2): n.b.: no binding detected; <LOQ: binding detected but below limit of quantitation; settings: 100 mM TMAA, 1 mM KCl
Protocol: as §1, §2, §3

[9] = test system: human duplex sequence FdxT; experiment: FRET melting assay, duplex control FdxT; type: binding; settings: compound 2 μM, oligonucleotide 0.2 μM, K+ conditions
Protocol: as §4

[10] = 1:1 ligand:DNA complex, read-out: Kd Pf8, stoichiometry 1 (Kd1)
[11] = 2:1 ligand:DNA complex, read-out: Kd Pf8, stoichiometry 2 (Kd2)
[12] = 1:1 ligand:DNA complex, read-out: Kd Pf1, stoichiometry 1 (Kd1)
[13] = 2:1 ligand:DNA complex, read-out: Kd Pf1, stoichiometry 2 (Kd2)

SMILES	Kd [1, 10] [µM]	Kd [1, 11] [µM]	ΔTm FPf8T [2] [°C]	ΔTm FPf1T [3] [°C]	ΔTm FtrypBT [4] [°C]	CC50 at 72 h [5] [µM]	IC50 [6] [µM]	ΔTm F21T [7] [°C]	Kd [8, 12] [µM]	Kd Pf1, stoichiometry 2 (Kd2) ([8]; 2:1 ligand:DNA complex)	ΔTm FdxT [9] [°C]	Kd [8, 13] [µM]	Kd Pf8, stoichiometry 1 (Kd1) ([1]; 1:1 ligand:DNA complex)	Kd Pf1, stoichiometry 1 (Kd1) ([8]; 1:1 ligand:DNA complex)
CN(C)CCCCNCc1cc(-c2ccccc2)c2ccc3c(-c4ccccc4)cc(CNCCCCN(C)C)nc3c2n1 [Compound 1c, 2,9-Bis[(4-dimethylaminobutyl)aminomethyl]-4,7-diphenyl-1,10-phenanthroline]	3	50	10.2	8.9	10.6	10.4 ± 0.7	> 12.5	13.2	23	n.b.	−0.5	–	–	–
CN(C)CCCCCNCc1cc(-c2ccccc2)c2ccc3c(-c4ccccc4)cc(CNCCCCCN(C)C)nc3c2n1 [Compound 1d, 2,9-Bis[(5-dimethylaminopentyl)aminomethyl]-4,7-diphenyl-1,10-phenanthroline]	3	16	20.5	18.8	14.7	3.35 ± 0.33	> 12.5	18.1	8	–	1.8	24	–	–
c1ccc(-c2cc(CNCCCN3CCCC3)nc3c2ccc2c(-c4ccccc4)cc(CNCCCN4CCCC4)nc23)cc1 [Compound 1l]	2	59	14.2	15.4	11.6	15.2 ± 1.56	> 12.5	14.5	10	–	0.7	37	–	–
c1ccc(-c2cc(CNCCc3ccccn3)nc3c2ccc2c(-c4ccccc4)cc(CNCCc4ccccn4)nc23)cc1 [Compound 1m]	83	–	1.0	1.3	1.8	4.34 ± 0.31	> 12.5	1.0	–	–	−0.2	–	very weakly bound	n.b.
